Measurements taken from US8691820B2, “CDK inhibitors” (Curis, Inc., priority 2008, dated 2014).

Each molecule was assayed against T1, CDK2/cyclinA (Homo sapiens, UniProt P24941) (assay: CDK2 kinase assay (33P-ATP, Histone H1 substrate)). Details: 1 μM ATP, 5 μM Histon H1, 2 hours at room temperature.
T1 construct: C-terminal 6His-tagged human full length cdk2 (MW=35 kDa); 6His (C); made in house; host or cells: Sf21 insect cells (baculovirus)
Assay type: biochemical
Text: CDK2/cyclinA (Accession number for CDK2; EMBL M68520, for cyclin A; EMBL X51688): C-terminal 6His-tagged human full length cdk2 (MW=35 kDa), and N-terminal GST-tagged human full length cyclin A (MW=75 kDa) were expressed individually with baculovirus system in Sf21 insect cells. Recombinant cdk2 protein was purified with Ni2+/NTA agarose and then activated using CAK and repurified by Q Sepharose and Ni2+/NTA agarose. Recombinant cyclin A was purified using glutathione-agarose. They were then mixed in vitro to form protein complex. Recombinant protein complex was measured to be 67% in purity with SDS-PAGE and Coomassie blue staining. Specific activity of purified enzyme was measured to be 158 U/mg, where one unit of cdk2/cyclinA activity is defined as 1 nmol phosphate incorporated into 0.1 mg/ml histone H1 per minute at 30° C. with a final ATP concentration of […]. Enzyme was stored at a concentration of 0.1 mg/ml in 50 mM Tris/HCl pH7.5, 150 mM NaCl, 0.1 mM EGTA, 0.03% Brij-35, 270 mM sucrose, 1 mM benzamidine, 0.2 mM PMSF, 0.1% 2-mercaptoethanol. Frozen solution.
Histon H1 (Substrate for CDK2): Histone H1 (Sigma cat#H4524), was purified as a lysine rich fraction from calf thymus with 93% purity (MW=21.5 kDa). Purified protein was stored at a concentration of 20 mg/ml=930 μM in distilled water.
[…] (0.5 nmol) and 5 μM Histon H1 were mixed in the reaction buffer (20 mM HEPES (pH 7.5), 10 mM MgCl2, 1 mM EGTA, 0.02% Brij 35, 0.02 mg/ml BSA, 0.1 mM Na3VO4, 2 mM DTT) with final concentration of 1 μM ATP and 1% DMSO. The reaction was incubated for 2 hours at room temperature and conversion rate of ATP is about 4.5%. An equal volume of 25% TCA was added to stop the reaction and precipitate the labeled peptides. Precipitated proteins were trapped onto glass fiber B filterplates and excess […] p33 ATP was washed off. The plates were allowed to air-dry prior to the addition of 30 uL/well of Packard Microscint 20. The amount of incorporated isotope was measured using a Perkin Elmer TopCount plate reader. Different concentrations of compounds were added to reaction to assess the activity of compounds to inhibit […]. IC50 was calculated using Prism software with sigmoidal dose-response curve fitting.
The following TABLE B lists compounds representative of the invention and their activity in the CDK2 assay. In this assay, the following grading was used: I≧10 μM, 10 μM>II>1 μM, 1 μM>III>0.1 μM, and IV≦0.1 μM for IC50.

IC50 [nM] | SMILES
≤ 100 | CC(C)(C)c1cnc(CSc2cnc(NC(=O)Cc3ccc(OCCCC(=O)Nc4ccc(F)cc4N)cc3)s2)o1 [Compound 59, N-(2-amino-4-fluorophenyl)-4-(4-(2-(5-((5-tert-butyloxazol-2-yl)methylthio)thiazol-2-ylamino)-2-oxoethyl)phenoxy)butanamide]
≤ 100 | CC(C)(C)c1cnc(CSc2cnc(NC(=O)CCCCCCC(=O)Nc3nc4ccccc4[nH]3)s2)o1 [Compound 47]
≤ 100 | CC(C)(C)c1cnc(CSc2cnc(NC(=O)CCCCCCC(=O)Nc3[nH]ncc3-c3ccc(F)cc3)s2)o1 [Compound 45]
≤ 100 | CONC(=O)CCCOc1ccc(CC(=O)Nc2ncc(SCc3ncc(C(C)(C)C)o3)s2)cc1 [Compound 31, 4-(4-(2-(5-((5-tert-butyloxazol-2-yl)methylthio)thiazol-2-ylamino)-2-oxoethyl)phenoxy)-N-methoxybutanamide]
≤ 100 | CC(C)(C)c1cnc(CSc2cnc(NC(=O)Cc3ccc(OCCCC(=O)Nc4ccccc4)cc3)s2)o1 [Compound 61, 4-(4-(2-(5-((5-tert-butyloxazol-2-yl)methylthio)thiazol-2-ylamino)-2-oxoethyl)phenoxy)-N-phenylbutanamide]
100 to 1000 | CC(C)(C)c1cnc(CSc2cnc(NC(=O)C(=O)Nc3ccccc3)s2)o1 [Compound 11]
≤ 100 | CONC(=O)/C=C/c1ccc(C(=O)Nc2ncc(SCc3ncc(C(C)(C)C)o3)s2)cc1 [Compound 38, (E)-N-(5-((5-tert-butyloxazol-2-yl)methylthio)thiazol-2-yl)-4-(3-(methoxyamino)-3-oxoprop-1-enyl)benzamide]
≤ 100 | CC(C)(C)c1cnc(CSc2cnc(NC(=O)CCCCCCC(=O)Nc3ccc(CCO)cc3)s2)o1 [Compound 8, N^1-(5-((5-tert-butyloxazol-2-yl)methylthio)thiazol-2-yl)-N^8-(4-(2-hydroxyethyl)phenyl)octanediamide]
≤ 100 | CC(C)(C)c1cnc(CSc2cnc(NC(=O)CCCCCCC(=O)Nc3c[nH]c4ccccc34)s2)o1 [Compound 50]
≤ 100 | CC(C)(C)c1cnc(CSc2cnc(NC(=O)CCCCCCC(=O)Nc3cn[nH]c3)s2)o1 [Compound 42, N^1-(5-((5-tert-butyloxazol-2-yl)methylthio)thiazol-2-yl)-N^8-(1H-pyrazol-4-yl)octanediamide]
≤ 100 | CC(C)(C)c1cnc(CSc2cnc(NC(=O)CCCCCCC(=O)Nc3ccccc3)s2)o1 [Compound 9, N^1-(5-((5-tert-butyloxazol-2-yl)methylthio)thiazol-2-yl)-N^8-phenyloctanediamide]
≤ 100 | CC(C)(C)c1cnc(CSc2cnc(NC(=O)Cc3ccc(OCCC(=O)Nc4ccccc4N)cc3)s2)o1 [Compound 33]
≤ 100 | CC(=O)Nc1ccccc1NC(=O)CCCCCCC(=O)Nc1ncc(SCc2ncc(C(C)(C)C)o2)s1 [Compound 19, N^1-(2-acetamidophenyl)-N^8-(5-((5-tert-butyloxazol-2-yl)methylthio)thiazol-2-yl)octanediamide]
≤ 100 | CC(C)(C)c1cnc(CSc2cnc(NC(=O)CCCCCCC(=O)Nc3ccccn3)s2)o1 [Compound 28, N^1-(5-((5-tert-butyloxazol-2-yl)methylthio)thiazol-2-yl)-N^8-(pyridin-2-yl)octanediamide]
≤ 100 | CC(Sc1cnc(NC(=O)CCCCCCC(=O)Nc2ccccc2N)s1)c1ncc(C(C)(C)C)o1 (stereo not drawn) [Compound 20, N^1-(2-aminophenyl)-N^8-(5-(1-(5-tert-butyloxazol-2-yl)ethylthio)thiazol-2-yl)octanediamide]
≤ 100 | CC(C)(C)c1cnc(CSc2cnc(NC(=O)CCCCCCC(=O)n3nc(N)c4ccccc43)s2)o1 [Compound 48]
≤ 100 | CC(C)(C)c1cnc(CSc2cnc(NC(=O)CCCCCCC(=O)Nc3cccnc3)s2)o1 [Compound 29, N^1-(5-((5-tert-butyloxazol-2-yl)methylthio)thiazol-2-yl)-N^8-(pyridin-3-yl)octanediamide]

IC50 [nM] | SMILES
≤ 100 | CC(C)(C)c1cnc(CSc2cnc(NC(=O)CCCC(=O)Nc3ccccc3N)s2)o1 [Compound 15, N1-(2-aminophenyl)-N5-(5-((5-tert-butyloxazol-2-yl)methylthio)thiazol-2-yl)glutaramide]
≤ 100 | CC(C)(C)c1cnc(CSc2cnc(NC(=O)CCCCCCC(=O)Nc3cc(-c4cccs4)n[nH]3)s2)o1 [Compound 52]
≤ 100 | CC(C)(C)c1cnc(CSc2cnc(NC(=O)CCCCCCC(=O)Nc3ccncc3)s2)o1 [Compound 30, N^1-(5-((5-tert-butyloxazol-2-yl)methylthio)thiazol-2-yl)-N^8-(pyridin-4-yl)octanediamide]
≤ 100 | CC(C)(C)c1cnc(CSc2cnc(NC(=O)CCCCCCC(=O)N(O)Cc3ccccc3)s2)o1 [Compound 6, N^1-benzyl-N^8-(5-((5-tert-butyloxazol-2-yl)methylthio)-thiazol-2-yl)-N^1-hydroxyoctanediamide]
≤ 100 | CC(C)(C)c1cnc(CSc2cnc(NC(=O)CCCCCCC(=O)n3ncc(-c4ccc(F)cc4)c3N)s2)o1 [Compound 44, 8-(5-amino-4-(4-fluorophenyl)-1H-pyrazol-1-yl)-N-(5-((5-tert-butyloxazol-2-yl)methylthio)thiazol-2-yl)-8-oxooctanamide]
≤ 100 | CC(C)(C)c1cnc(CSc2cnc(NC(=O)CCCCCCC(=O)Nc3ccc(F)cc3N)s2)o1 [Compound 23, N^1-(2-amino-4-fluorophenyl)-N^8-(5-((5-tert-butyloxa-zol-2-yl)methylthio)thiazol-2-yl)octanediamide]
1000 to 10000 | CN(O)C(=O)/C=C/c1ccc(C(=O)Nc2ncc(SCc3ncc(C(C)(C)C)o3)s2)cc1 [Compound 39, (E)-N-(5-((5-tert-butyloxazol-2-yl)methylthio)thiazol-2-yl)-4-(3-(hydroxy(methyl)amino)-3-oxoprop-1-enyl)benzamide]
≤ 100 | CC(C)(C)c1cnc(CSc2cnc(NC(=O)Cc3ccc(OCCCC(=O)Nc4cccnc4)cc3)s2)o1 [Compound 63, 4-(4-(2-(5-((5-tert-butyloxazol-2-yl)methylthio)thiazol-2-ylamino)-2-oxoethyl)phenoxy)-N-(pyridin-3-yl)butanamide]
≤ 100 | Cc1ccc(NC(=O)CCCCCCC(=O)Nc2ncc(SCc3ncc(C(C)(C)C)o3)s2)c(N)c1 [Compound 26, N^1-(2-amino-4-methylphenyl)-N^8-(5-((5-tert-butyloxazol-2-yl)methylthio)thiazol-2-yl)octanediamide]
≤ 100 | CC(C)(C)c1cnc(CSc2cnc(NC(=O)Cc3ccc(OCCCCC(=O)Nc4ccccc4N)cc3)s2)o1 [Compound 35, N-(2-aminophenyl)-5-(4-(2-(5-((5-tert-butyloxazol-2-yl)methylthio)thiazol-2-ylamino)-2-oxoethyl)phenoxy)pentanamide]
≤ 100 | CC(C)(C)c1cnc(CSc2cnc(NC(=O)CCCCCCC(=O)Nc3cccc(N)c3)s2)o1 [Compound 22, N^1-(3-aminophenyl)-N^8-(5-((5-tert-butyloxazol-2-yl)methylthio)thiazol-2-yl)octanediamide]
≤ 100 | CC(C)(C)c1cnc(CSc2cnc(NC(=O)CCCCCCC(=O)Nc3n[nH]c4ccccc34)s2)o1 [Compound 41]
≤ 100 | CC(C)(C)c1cnc(CSc2cnc(NC(=O)CCCCCCC(=O)NOCCO)s2)o1 [Compound 7, N^1-(5-((5-tert-butyloxazol-2-yl)methylthio)thiazol-2-yl)-N^8-(2-hydroxyethoxy)octanediamide]
≤ 100 | CC(C)(C)c1cnc(CSc2cnc(NC(=O)CC3Nc4ccccc4NC3=O)s2)o1 (stereo not drawn) [Compound 46, N-(5-((5-tert-butyloxazol-2-yl)methylthio)thiazol-2-yl)-2-(3-oxo-1,2,3,4-tetrahydroquinoxalin-2-yl)acetamide]
≤ 100 | CC(C)(C)c1cnc(CSc2cnc(NC(=O)CCCCCCC(=O)Nc3ccc(O)cc3)s2)o1 [Compound 10, N^1-(5-((5-tert-butyloxazol-2-yl)methylthio)thiazol-2-yl)-N^8-(4-hydroxyphenyl)octanediamide]
≤ 100 | CC(C)(C)c1cnc(CSc2cnc(NC(=O)Cc3ccc(OCCCC(=O)Nc4ccccc4N)cc3)s2)o1 [Compound 34, N-(2-aminophenyl)-4-(4-(2-(5-((5-tert-butyloxazol-2-yl)methylthio)thiazol-2-ylamino)-2-oxoethyl)phenoxy)butanamide]
